Measured values as given in patent US8008484B2 (priority 2004, dated 2011).

What was measured:
[1] = system: Paddy rice (variety: KOSIHIKARI); conditions: foliar spray, 500 ppm
[2] = system: Cucumber (variety: SAGAMI HANPAKU); experiment: Phytotoxicity studied in the Botrytis cinerea foliage test; assay type: in vivo; conditions: cucumber seedlings, foliar spray, 500 ppm
Protocol: Cucumber (variety: SAGAMI HANPAKU) was cultivated in a plastic pot of 4 cm diameter. A diluted solution of an active compound of the prescribed concentration, prepared in a similar manner as in the above-mentioned Test Example 1, was sprayed to seedlings reached to cotyledon in an amount of 6 ml per 2 pots. One day after the spraying, an inoculant, prepared by mixing a suspension of artificially cultured spores of Botrytis cinerea and agar gel (2×10^4 spores/ml gel), was placed on cotyledons to inoculate and infected in a moisture box kept at 20° C. Four days after the inoculation, the contraction rate per cotyledon was classified and evaluated according to the following standard to obtain the controlling value (%). Phytotoxicity was also studied at the same time. This test is an average of the results of 2 sections 4 cotyledons.

Structure (SMILES) | Phytotoxicity [1] | Phytotoxicity [2]
COc1cc(OC)nc(C(O)c2cccc(F)c2NS(C)(=O)=O)n1 (stereo not shown) [Compound 18-2] | No phytotoxicity was observed | 
COc1cc(OC)nc(Cc2cccc(Cl)c2N(C(C)=O)S(=O)(=O)C(F)F)n1 [Compound 2-31] | No phytotoxicity was observed | No phytotoxicity was observed
COc1cc(OC)nc(Cc2cc(F)ccc2NS(=O)(=O)C(F)F)n1 [Compound 2-62] | No phytotoxicity was observed | 
COc1cc(OC)nc(C(O)c2ccccc2NS(=O)(=O)C(F)(F)F)n1 (stereo not shown) [Compound 18-20] |  | No phytotoxicity was observed
COc1cc(OC)nc(C(O)c2ccc(F)cc2NS(=O)(=O)C(F)F)n1 (racemic) [Compound 4-186] |  | No phytotoxicity was observed
COc1cc(OC)nc(C(O)c2cccc(F)c2NS(=O)(=O)C(F)(F)F)n1 (stereo not shown) [Compound 18-21] | No phytotoxicity was observed | 
COc1cc(OC)nc(Cc2ccc(F)c(C)c2NS(=O)(=O)C(F)F)n1 [Compound 2-193] | No phytotoxicity was observed | 
COc1cc(OC)nc(Cc2cccc(F)c2N(C(C)=O)S(=O)(=O)C(F)F)n1 [Compound 2-18] |  | No phytotoxicity was observed
COc1cc(OC)nc(Cc2cc(F)c(Cl)c(F)c2NS(=O)(=O)C(F)F)n1 [Compound 2-125] | No phytotoxicity was observed | 
COc1cc(OC)nc(C(O)c2ccc(F)c(C)c2NS(=O)(=O)CC(F)(F)F)n1 (racemic) [Compound 12-137] | No phytotoxicity was observed | 
COc1cc(OC)nc(Cc2cccc(Cl)c2NS(=O)(=O)CC(F)(F)F)n1 [Compound 14-22] |  | No phytotoxicity was observed
COc1cc(OC)nc(Cc2cccc(F)c2NS(=O)(=O)CCl)n1 [Compound 14-8] |  | No phytotoxicity was observed
COc1nc(OC)nc(C(O)c2cccc(C)c2NS(=O)(=O)C(F)F)n1 (stereo not shown) [Compound 18-53] | No phytotoxicity was observed | 
COc1cc(OC)nc(C(O)c2cccc(F)c2NS(=O)(=O)CCl)n1 (stereo not shown) [Compound 18-6] | No phytotoxicity was observed | No phytotoxicity was observed
COC(=O)N(c1c(Cl)cccc1Cc1nc(OC)cc(OC)n1)S(=O)(=O)C(F)F [Compound 2-32] | No phytotoxicity was observed | 
COc1cc(OC)nc(C(O)c2cc(C)cc(F)c2NS(=O)(=O)C(F)F)n1 (racemic) [Compound 4-107] |  | No phytotoxicity was observed
COc1cc(OC)nc(C(O)c2cccc(F)c2NS(=O)(=O)CC(F)(F)F)n1 (stereo not shown) [Compound 18-10] | No phytotoxicity was observed | No phytotoxicity was observed
COc1cc(OC)nc(Cc2cccc(Cl)c2N(C(=O)C2CC2)S(=O)(=O)C(F)F)n1 [Compound 2-191] | No phytotoxicity was observed | No phytotoxicity was observed
COc1cc(OC)nc(Cc2cccc(Cl)c2NS(=O)(=O)C(F)(F)F)n1 [Compound 14-20] |  | No phytotoxicity was observed
COc1nc(OC)nc(C(=O)c2ccccc2NS(=O)(=O)C(F)F)n1 [Compound 9-48] |  | No phytotoxicity was observed
COc1cc(OC)nc(C(O)c2ccc(F)c(C)c2NS(=O)(=O)C(F)F)n1 (racemic) [Compound 4-184] | No phytotoxicity was observed | 
COc1cc(OC)nc(Cc2cccc(Cl)c2NS(=O)(=O)C(F)F)n1 [Compound 14-35] |  | No phytotoxicity was observed
COc1cc(OC)nc(Cc2cc(C)c(F)cc2NS(=O)(=O)C(F)F)n1 [Compound 2-190] | No phytotoxicity was observed | 

Structure (SMILES) | Phytotoxicity [1] | Phytotoxicity [2]
COc1nc(OC)nc(C(O)c2cccc(F)c2NS(=O)(=O)C(F)F)n1 (stereo not shown) [Compound 18-51] |  | No phytotoxicity was observed
COCc1c(F)ccc(Cc2nc(OC)cc(OC)n2)c1NS(=O)(=O)C(F)F [Compound 14-40] |  | No phytotoxicity was observed
COc1cc(OC)nc(Cc2c(Cl)ccc(Cl)c2NS(=O)(=O)C(F)F)n1 [Compound 2-138] |  | No phytotoxicity was observed
COc1cc(OC)nc(Cc2cc(C)cc(C)c2NS(=O)(=O)C(F)F)n1 [Compound 2-192] |  | No phytotoxicity was observed
COc1cc(OC)nc(C(O)c2cccc(F)c2NS(=O)(=O)C(F)F)n1 (stereo not shown) [Compound 18-25] |  | No phytotoxicity was observed
COc1cc(OC)nc(C(=O)c2cccc(Cl)c2N(C(C)=O)S(=O)(=O)C(F)F)n1 [Compound 3-22] | No phytotoxicity was observed | 
COc1cc(OC)nc(Cc2ccc(F)cc2NS(=O)(=O)C(F)F)n1 [Compound 2-61] | No phytotoxicity was observed | 
COc1cc(OC)nc(C(=O)c2cccc(Cl)c2NS(=O)(=O)C(F)F)n1 [Compound 9-26] |  | No phytotoxicity was observed
COc1cc(OC)nc(C(O)c2cc(C)cc(F)c2NS(=O)(=O)CC(F)(F)F)n1 (racemic) [Compound 12-131] | No phytotoxicity was observed | 
COc1cc(OC)nc(Cc2ccccc2NS(=O)(=O)C(F)(F)F)n1 [Compound 14-2] |  | No phytotoxicity was observed
COc1cc(OC)nc(C(=O)c2cccc(F)c2NS(=O)(=O)C(F)F)n1 [Compound 9-25] |  | No phytotoxicity was observed
COc1cc(OC)nc(C(O)c2ccc(C)c(C)c2NS(=O)(=O)C(F)F)n1 (racemic) [Compound 4-187] |  | No phytotoxicity was observed
COc1cc(OC)nc(C(SC)c2cccc(F)c2NS(=O)(=O)C(F)F)n1 (stereo not shown) [Compound 1-14] |  | No phytotoxicity was observed
COc1cc(OC)nc(Cc2ccc(F)c(F)c2NS(=O)(=O)C(F)F)n1 [Compound 2-110] |  | No phytotoxicity was observed
COc1cc(OC)nc(Cc2cccc(C)c2NS(=O)(=O)C(F)F)n1 [Compound 14-37] | No phytotoxicity was observed | No phytotoxicity was observed
COc1cc(OC)nc(C(O)c2cc(C)cc(Cl)c2NS(=O)(=O)C(F)F)n1 (racemic) [Compound 4-130] | No phytotoxicity was observed | No phytotoxicity was observed
COc1cc(OC)nc(C(O)c2ccccc2NS(=O)(=O)C(F)F)n1 (stereo not shown) [Compound 18-24] | No phytotoxicity was observed | No phytotoxicity was observed
COc1cc(OC)nc(C(Cl)c2cccc(F)c2NS(=O)(=O)C(F)(F)F)n1 (stereo not shown) [Compound 12-127] | No phytotoxicity was observed | 
COc1cc(OC)nc(Cc2cccc(F)c2NS(=O)(=O)C(Cl)Cl)n1 [Compound 12-136] |  | No phytotoxicity was observed
COc1cc(OC)nc(Cc2ccccc2NS(=O)(=O)C(F)F)n1 [Compound 2-1] |  | No phytotoxicity was observed
COc1cc(OC)nc(C(O)c2cccc(Cl)c2NS(=O)(=O)C(F)F)n1 (stereo not shown) [Compound 18-26] |  | No phytotoxicity was observed
COc1cc(OC)nc(Cc2ccc(F)c(C)c2NS(=O)(=O)CC(F)(F)F)n1 [Compound 13-8] |  | No phytotoxicity was observed
